{"source": "patent US20250327032A1", "about": "“AGENT FOR AVOIDING IMMUNE RESPONSE OF TRANSGENIC CELLS” (HYPERION DRUG DISCOVERY CO., LTD., priority 2021, published 2025)", "key": {"[1]": {"test_system": "human mesenchymal stem cells", "assay": "Introduction of GFP mRNA by lipofection, yield of GFP-positive cells", "assay_type": "cell-based", "details": "10 pg/cell", "protocol": "(§1) Human mesenchymal stem cells were seeded in a 6-well plate to be about 10,000 cells/cm^2. Human myoblasts were seeded in another 6-well plate to be about 20,000 cells/cm^2. As a culture solution, a basal medium for each cell supplemented with 0.1, 1, or 10 μM of JSH-23 was used. As a control, a basal medium for each cell supplemented with 0.1% (v/v) DMSO instead of JSH-23 was used as a culture solution.\n(§2) A lipofection solution was prepared by adding Lipofectamine RNAiMAX and fluorescent protein GFP mRNA to OptiMEM. As the GFP mRNA, that containing uridine or that containing pseudouridine instead of uridine was used. In addition, for those containing pseudouridine, a basal medium for each cell supplemented with 1 μM of JSH-23 was used, and as a control, a basal medium for each cell supplemented with 0.1% (v/v) DMSO instead of JSH-23 was used as a culture solution. It was prepared so that the amount of mRNA was 10 pg/cell for human mesenchymal stem cells and 5 pg/cell for human myoblasts. The prepared lipofection solution was mixed well according to the manufacturer's recommended protocol and allowed to stand at room temperature for about 15 minutes.\n(§3) Next, each lipofection solution was added to the plate seeded with human mesenchymal stem cells or human myoblasts, and cultured in a CO2 incubator at 37° C. for about 1 day (18 hours) (human mesenchymal stem cells) or for 2 days (42 hours) (human myoblasts). After culturing, all the culture solution comprising the lipofection solution was removed and replaced with a new culture solution having the same composition as before the addition of the lipofection solution.\n(§4) After another 6 hours, the above lipofection solution was newly prepared, added again to the plate seeded with human mesenchymal stem cells or human myoblasts, and cultured in a CO2 incubator at 37° C. for about 1 day (18 hours) (mesenchymal stem cells) or about 2 days (42 hours) (human myoblasts). These steps were repeated so that the introduction of genes was performed a total of 4 times.\n(§5) Twenty-four hours after the final introduction of genes, the cells were detached with a cell detachment solution, centrifuged at 600×g for 5 minutes using a centrifuge, to collect the cells. The collected cells were counted using a hemocytometer. Furthermore, the GFP-positive percentage of the collected cells was measured using a flow cytometer. The yield of the number of GFP-positive cells was calculated from the number of cells counted and the GFP-positive rate.\nas §1, with “1” for “0.1, 1, or 10”, “calcitriol” for “JSH-23”\n(§6) A lipofection solution was prepared by adding Lipofectamine RNAiMAX and fluorescent protein GFP mRNA to OptiMEM. As the GFP mRNA, that containing uridine, or that containing pseudouridine instead of uridine was used. It was prepared so that the amount of mRNA was 10 pg/cell for human mesenchymal stem cells and 5 pg/cell for human myoblasts. The prepared lipofection solution was mixed well according to the manufacturer's recommended protocol and allowed to stand at room temperature for about 15 minutes."}, "human myoblasts": {"test_system": "human myoblasts", "assay": "Introduction of GFP mRNA by lipofection, yield of GFP-positive cells", "assay_type": "cell-based", "details": "5 pg/cell", "protocol": "as §1, §2, §3, §4, §5\nas §1, with “1” for “0.1, 1, or 10”, “calcitriol” for “JSH-23”\nas §6"}, "[2]": {"details": "GFP mRNA containing pseudouridine instead of uridine, JSH-23 1 μM"}}}
{"smiles": "Cc1ccc(NCCCc2ccccc2)c(N)c1", "note": "[JSH-23]", "values": [{"measurement": "yield of GFP-positive cells compared to the control (control set to 1)", "setting": "[1]; [2]", "result": "≥ 7", "unit": "times"}, {"measurement": "yield of GFP-positive cells compared to the control (control set to 1)", "setting": "[1]; GFP mRNA containing uridine, 4 introductions, JSH-23 0.1, 1 or 10 μM, maximal at 1 μM, control 0.1% DMSO", "result": "≥ 7", "unit": "times"}, {"measurement": "yield of GFP-positive cells compared to the control (control set to 1)", "setting": "human myoblasts; [2]", "result": "≥ 2", "unit": "times"}, {"measurement": "yield of GFP-positive cells compared to the control (control set to 1)", "setting": "human myoblasts; GFP mRNA containing uridine, JSH-23 0.1, 1 or 10 μM", "result": "≥ 3", "unit": "times"}]}
